What is called melting point is the temperature of the solid-liquid transition. `CC(=O)C(=O)N[C@H](CO[N+](=O)[O-])c1ccccc1` [Example 4, N-[(1S)-2-(Nitrooxy)-1-phenylethyl]-2-oxopropanamide] displayed a melting point of 76 to 77 °C. The figure for `CC(=O)C(=O)N[C@H](CO[N+](=O)[O-])Cc1ccccc1` [Example 5, N-[(1S)-2-(Nitrooxy)-1-benzylethyl]-2-oxopropanamide] is 72 to 75 °C.
